Reference: paper PMC6944674, “Comparison of the Hepatotoxic Potential of Two Treatments for Autosomal-Dominant Polycystic Kidney DiseaseUsing Quantitative Systems Toxicology Modeling” (Pharmaceutical Research, 2020)

Experiments:
[1] = system: HepG2 cells; experiment: Intracellular concentration by LC/MS/MS in HepG2 cultures parallel to ROS high-content screening; type: in vitro ADME; conditions: High content screening medium; for CIntracellular Fraction: cell lysate
Procedure: (§1) To assess the intracellular concentration of lixivaptan and its metabolites, an identical HepG2 culture was established in parallel and cell lysate concentrations of each test article were measured by LC/MS/MS analysis. Intracellular concentrations of the compounds were calculated by correcting for cell lysate volume (100 µL) and the volume of HepG2 cells in each well, which was calculated by multiplying cell count per well by cellular volume per cell (2.85 pl/cell for HepG2). One independent study in triplicate was conducted to assess intracellular concentrations of the test articles for the ROS (high-content imaging) studies.

[2] = as above; type: in vitro ADME; conditions: human, HepG2 cells, High content screening medium
Procedure: as §1

[3] = molecular target: T1, MRP3 and MRP4 (basolateral transport) (Homo sapiens, UniProt O15439); experiment: Basolateral inhibition constant: lowest IC50 of the MRP3 and MRP4 vesicular assays; type: biochemical; conditions: membrane vesicles (vesicular transport assay), lowest IC50 of the experimentally derived MRP3 and MRP4 IC50 values
T1 sequence (O15439 1-1325): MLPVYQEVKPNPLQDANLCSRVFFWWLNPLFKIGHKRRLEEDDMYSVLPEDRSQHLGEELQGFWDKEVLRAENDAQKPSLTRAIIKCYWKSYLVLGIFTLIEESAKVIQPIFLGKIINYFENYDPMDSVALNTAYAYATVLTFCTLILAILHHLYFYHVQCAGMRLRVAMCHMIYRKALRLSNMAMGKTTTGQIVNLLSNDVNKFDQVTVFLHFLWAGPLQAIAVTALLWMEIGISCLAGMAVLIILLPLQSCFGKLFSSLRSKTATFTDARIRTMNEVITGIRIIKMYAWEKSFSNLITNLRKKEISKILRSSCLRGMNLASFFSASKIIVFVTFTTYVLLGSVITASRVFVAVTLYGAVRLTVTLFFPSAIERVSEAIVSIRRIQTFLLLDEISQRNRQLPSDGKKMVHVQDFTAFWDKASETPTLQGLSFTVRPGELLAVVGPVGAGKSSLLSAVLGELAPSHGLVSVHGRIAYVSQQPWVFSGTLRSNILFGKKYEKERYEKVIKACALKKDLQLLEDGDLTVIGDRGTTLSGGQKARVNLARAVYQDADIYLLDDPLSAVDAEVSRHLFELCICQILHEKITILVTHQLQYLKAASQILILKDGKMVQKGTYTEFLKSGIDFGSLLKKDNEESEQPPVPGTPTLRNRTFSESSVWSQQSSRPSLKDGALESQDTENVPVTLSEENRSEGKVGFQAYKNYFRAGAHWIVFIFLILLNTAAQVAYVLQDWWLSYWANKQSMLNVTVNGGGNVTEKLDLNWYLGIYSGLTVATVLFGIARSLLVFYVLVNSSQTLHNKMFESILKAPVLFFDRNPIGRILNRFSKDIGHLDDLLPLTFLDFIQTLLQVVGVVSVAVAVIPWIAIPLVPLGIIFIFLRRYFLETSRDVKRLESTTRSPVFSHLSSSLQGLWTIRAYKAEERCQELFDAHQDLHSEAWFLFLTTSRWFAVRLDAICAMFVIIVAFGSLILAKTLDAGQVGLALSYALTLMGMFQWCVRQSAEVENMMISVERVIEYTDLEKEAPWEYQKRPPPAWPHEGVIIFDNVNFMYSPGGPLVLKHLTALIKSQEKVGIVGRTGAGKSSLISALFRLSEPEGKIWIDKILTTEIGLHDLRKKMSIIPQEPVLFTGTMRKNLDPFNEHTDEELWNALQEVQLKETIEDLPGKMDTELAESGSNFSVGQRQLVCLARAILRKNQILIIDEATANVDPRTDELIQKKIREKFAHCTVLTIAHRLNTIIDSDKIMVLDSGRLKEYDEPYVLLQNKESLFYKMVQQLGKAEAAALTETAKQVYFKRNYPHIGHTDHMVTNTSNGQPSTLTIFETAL
Procedure: The functional impact of lixivaptan, its three metabolites and tolvaptan on the human ABC (efflux) transporters BSEP and MRP3 and MRP4 was assessed for this project using in vitro vesicular transport inhibition assays. The inhibition of the human SLC (uptake) transporter NTCP was assessed using CHO cells stably expressing human NTCP. The concentration ranges used for the five test articles was determined based on the solubility of each compound in the assay solution. All transporter inhibition assays were conducted in triplicate by Solvo Biotechnology (Szeged, Hungary). For the simulation of bile acid transporter inhibition by lixivaptan in […], parameter values were selected for BSEP canalicular transport, basolateral transport (encompassing both MRP3 and MRP4), and NTCP transport. The parameter values for each include the inhibition constant, defined as the IC50 or Ki value, and the inhibition type, defined as competitive, non-competitive, or mixed inhibition.

[4] = parameters: method as in proprietary data not shown; conditions: rat tissue distribution study; ref proprietary data not shown; cited from earlier work
[5] = Intracellular concentration by LC/MS/MS in HepG2 cultures parallel to Seahorse assay; type: in vitro ADME; conditions: human, HepG2 cells, Seahorse medium
Procedure: The concentration of test compound at the site of action (i.e. hepatocytes) has been identified as highly influential in the selection of parameter values (7). To assess intracellular concentrations of the five test articles, identical HepG2 cultures were established in parallel and cell lysate concentrations of the test articles were measured by LC/MS/MS analysis. Intracellular concentrations of the test articles were calculated by correcting for cell lysate volume (100 µL) and the volume of HepG2 cells in each well, which was calculated by multiplying cell count per well by cellular volume per cell (2.85 pl/cell). One independent study in duplicate was conducted to assess intracellular concentrations of the test articles for Seahorse studies.

## Cc1ccc(F)cc1C(=O)Nc1ccc(C(=O)N2Cc3cccn3Cc3ccccc32)c(Cl)c1 [Lixivaptan, lixivaptan]
[1]; dose 0.01 µM
  CExtracellular Fraction: 0.000 ± 0.000 µM
  CHepatocyte: 0.000 ± 0.000 µM
  CIntracellular Fraction: 0.000 ± 0.000 µM
[1]; dose 0.1 µM
  CExtracellular Fraction: 0.001 ± 0.001 µM
  CHepatocyte: 0.000 ± 0.000 µM
  CIntracellular Fraction: 0.000 ± 0.000 µM
[1]; dose 0.5 µM
  CExtracellular Fraction: 0.020 ± 0.001 µM
  CHepatocyte: 0.000 ± 0.000 µM
  CIntracellular Fraction: 0.000 ± 0.000 µM
[1]; dose 1 µM
  CExtracellular Fraction: 0.047 ± 0.001 µM
  CHepatocyte: 0.000 ± 0.000 µM
  CIntracellular Fraction: 0.000 ± 0.000 µM
[1]; dose 5 µM
  CExtracellular Fraction: 0.345 ± 0.011 µM
  CHepatocyte: 6.02 ± 6.30 µM
  CIntracellular Fraction: 0.0013 ± 0.0016 µM
[1]; dose 10 µM
  CExtracellular Fraction: 0.736 ± 0.055 µM
  CHepatocyte: 28.44 ± 5.12 µM
  CIntracellular Fraction: 0.0054 ± 0.0032 µM
[1]; dose 25 µM
  CExtracellular Fraction: 2.751 ± 0.143 µM
  CHepatocyte: 55.57 ± 15.10 µM
  CIntracellular Fraction: 0.0093 ± 0.0055 µM
[1]; dose 40 µM
  CExtracellular Fraction: 5.773 ± 0.508 µM
  CHepatocyte: 71.75 ± 11.05 µM
  CIntracellular Fraction: 0.0114 ± 0.0058 µM
[2]; dose 5 µM
  Kp at 5 µM: 17.6 ± 18.4
[2]; dose 10 µM
  Kp at 10 µM: 39.7 ± 6.49
[2]; dose 25 µM
  Kp at 25 µM: 19.9 ± 4.54
[2]; dose 40 µM
  Kp at 40 µM: 12.9 ± 2.68
[3]
  IC50: 70 µM
[4]
  measured liver-to-plasma ratio: 17
[5]; dose 0.5 µM
  Kp at 0.5 µM: 23.2
[5]; dose 1 µM
  Kp at 1 µM: 14.3
[5]; dose 5 µM
  Kp at 5 µM: 8.02
[5]; dose 10 µM
  Kp at 10 µM: 6.35
[5]; dose 25 µM
  Kp at 25 µM: 4.52
[5]; dose 40 µM
  Kp at 40 µM: 4.62
